{
  "source": "patent US20150017673A1",
  "about": "“COMPOSITIONS AND METHODS FOR DRUG-SENSITIZATION OR INHIBITION OF A CANCER CELL” (priority 2012, published 2015)",
  "key": {"[1]": {"tested_on": "CHOP-sensitive CRL2631 cells", "test": "Prevention of the emergence of CHOP resistance", "assay_type": "cell-based, human", "conditions": "one week CHOP+rifabutin, half (0.5×) and full (1×) doses of CHOP", "description": "The ability of rifabutin to prevent the emergence of CHOP-resistance was determined by treating CHOP-sensitive CRL2631 cells with either CHOP alone or CHOP+rifabutin for one week. Following treatment, the cells were grown in the absence of CHOP, then their sensitivity to CHOP was assayed by retreatment with CHOP, followed by counting of viable cells. […] A 1×CHOP dose in this experiment corresponds to final concentrations of the following components: 0.83 μM 4-hydroxycyclophosphamide [4HC, a pre-activated form of cyclophosphamide], 0.057 μM doxorubicin, 0.01 μM vincristine, and 0.186 μM prednisone."}, "lymphoma cell line G3": {"tested_on": "lymphoma cell line G3", "test": "Cell growth assay (resazurin fluorescence) on CHOP-resistant G3 NHL cells", "assay_type": "cell-based, human", "conditions": "for IC50: Homo sapiens", "how_it_was_run": "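CHOP-resistant G3 NHL cells grown five days in RPMI medium were counted by haemocytometer and set to 625,000 cells/ml. They were then added to plates holding test drug, first dissolved in 100% DMSO and diluted in 0.1M PBS to 0.5% final DMSO. Plates incubated 96 hours at 37° C. and 5% CO2. Resazurin at 20 μg/ml was added for a further 24 hours, and plates were read on a BMG Polarstar at 573-605.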"}, "[2]": {"tested_on": "lymphoma aspirate from a dog with CHOP-resistant lymphoma", "test": "CHOP responsiveness of dog lymphoma aspirate (resazurin)", "assay_type": "cell-based", "description": "A single lymphoma aspirate from a dog with CHOP-resistant lymphoma was tested for responsiveness to CHOP in the presence or absence of rifabutin. CHOP-responsiveness was measured by a decrease in fluorescence signal generated by resazurin."}, "G3 cells [3]": {"tested_on": "G3 cells", "test": "Collagen invasion 3D assay, G3 cells", "assay_type": "cell-based, human", "conditions": "10 uM Rifabutin in collagen matrix, 24 hours", "description": "The effects of rifabutin on cell invasion was assessed in a collagen invasion 3D assay. Increased interest in the use of 3D culture systems has been motivated by accumulating evidence that 3D models better reflect the microenvironment of tumors and metastases and more accurately predict therapeutic response in vivo compared with conventional 2D assays. A collagen invasion 3D assay allows the rapid and quantitative assessment of invasiveness and a means to screen for drugs which alter the invasive phenotype of tumor cells.\nThe CHOP-resistant G3 cell line is much more invasive in a collage invasion 3D assay than its CHOP-sensitive parent cell line (CRL2631). Collagen matrices (1 mg/ml) were prepared as previously described in Su, S. C., et al., Molecular profile of endothelial invasion of three-dimensional collagen matrices: insights into angiogenic sprout induction in wound healing. Am. J. Physiol. […] Cell invasion density was quantified by counting fixed cultures under transmitted light using an Olympus CK2 inverted microscope equipped with eyepieces displaying a 10×10 ocular grid. For each condition, four random fields were selected and the number of invading cells per high power field (HPF) was counted manually at 10× magnification, corresponding to 1 mm^2 area. […]"}, "G3 cells [4]": {"tested_on": "G3 cells", "test": "Modified Boyden chamber invasion assay, G3 cells", "assay_type": "cell-based, human", "conditions": "10 μM rifabutin 24 hours; DMSO 170,374", "description": "A modified Boyden chamber assay was used as an independent method to evaluate rifabutin's ability to suppress invasion/metastasis. […] Cell invasion was assessed with a Chemicon QCM Collagen Invasion Assay (Millipore). The assay is a 96-well plate assay wherein each well is equipped with a suspended insert. Inserts contain an 8-micron membrane coated with a thin layer of polymerized collagen. Invading cells migrate through the collagen layer and attach to the bottom of the membrane. Cells were detached from the membrane and lysed prior to detection via CyQuant dye. Fluorescence intensity is proportional to number of invading cells. […] In CRL2631 cells RLU decreases from 39,356 to 27,432 RLU in the presence of rifabutin (p<0.05)."}, "[5]": {"tested_on": "G3 CHOP-resistant NHL cells", "description": "In a first efficacy study, 6-8 week old female SCID mice (7 mice per treatment arm) were injected subcutaneously on both flanks with 1×10^7 G3 CHOP-resistant NHL cells. Once palpable tumors (about […] size) appeared, therapies (CHOP or CHOP+rifabutin) were started. CHOP was administered at the maximum tolerated dose (cyclophosphamide, 40 mg/kg i.v.; doxorubicin, 3.3 mg/kg i.v.; vincristine, 0.5 mg/kg i.v.; and prednisone, 0.2 mg/kg orally daily for 5 d) weekly for 3 weeks. Rifabutin in an amount of 100 mg/kg was administered on the day of each CHOP treatment and 24-hours later by gavage. Mouse body weight and tumor size were monitored every two days and tumor size measured by caliper. The tumor volume formula (L*W*W)/2 was used to calculate tumor mass.\nA second efficacy study was conducted where mice were treated before the appearance of palpable tumors. In that experiment, one week after transplantation of CHOP-resistant G3 cells, one group (7 mice) was treated with CHOP-only and a second group (8 mice) was treated with CHOP+rifabutin.\nA third study was conducted in which mice injected with CHOP-resistant G3 cells received reduced dosages of CHOP in combination with 33 mg/kg rifabutin. CHOP+rifabutin was administered weekly beginning one week post-inoculation. Control mice were given no CHOP or rifabutin.\nSCID mice were injected with CHOP-resistant G3 cells in the same manner as the first efficacy study above. Treatments began 2 weeks post-inoculation and were administered twice weekly."}, "[6]": {"tested_on": "primary human fibroblasts", "conditions": "with and without 2 uM Dox"}, "[7]": {"conditions": "cited from earlier work"}},
  "note": "“And” between values parts separate entries of the source, which are not always exact repeats. Equal values may be shown once. Read-outs that look alike come from different tables or passages of the source.",
  "data": [
    {"smiles": "CO[C@H]1/C=C/O[C@@]2(C)Oc3c(C)c(O)c4c(c3C2=O)C2=NC3(CCN(CC(C)C)CC3)NC2=C(NC(=O)/C(C)=C\\C=C\\[C@H](C)[C@H](O)[C@@H](C)[C@@H](O)[C@@H](C)[C@H](OC(C)=O)[C@@H]1C)C4=O", "note": "[Rifabutin, rifabutin]", "values": [
      {"measurement": "emergence of CHOP-resistant cells", "setting": "[1]", "value": "significantly repress the emergence of CHOP-resistant cells"},
      {"measurement": "Magnitude of potentiation in combination with doxorubicin", "setting": "lymphoma cell line G3; G3, lymphoma B cells", "value": "+++ (potentiation greater than 5 fold increase)"},
      {"measurement": "IC50", "setting": "lymphoma cell line G3; analog alone, lymphoma cell line G3, read-out: IC50", "value": "> 64", "unit": "µM"},
      {"measurement": "IC50", "setting": "lymphoma cell line G3; with 1 μM doxorubicin, lymphoma cell line G3, read-out: IC50 (μM) with doxorubicin (1 μM)", "value": 0.25, "unit": "µM"},
      {"measurement": "Fold increase in potency over DOX alone", "setting": "lymphoma cell line G3; lymphoma cell line G3", "value": 9.4, "unit": "fold"},
      {"measurement": "cell growth in the absence of CHOP", "setting": "lymphoma cell line G3; rifabutin alone, G3", "value": "did not affect the growth"},
      {"measurement": "CHOP dose giving significant growth inhibition", "setting": "[2]; CHOP with 5 μM rifabutin", "value": "320 ng/mL and 640 ng/mL"},
      {"measurement": "cell viability in the absence of CHOP", "setting": "[2]; rifabutin alone", "value": "no effect on cell viability"},
      {"measurement": "reduction of invasion", "setting": "G3 cells [3]", "value": "up to 30%"},
      {"measurement": "relative fluorescence (invading cells)", "setting": "G3 cells [4]", "value": "114,395 RLU"},
      {"measurement": "overall tumor burden per mouse", "setting": "[5]; first study, rifabutin 100 mg/kg by gavage with CHOP at maximum tolerated dose weekly for 3 weeks, versus CHOP only", "value": "much lower"},
      {"measurement": "toxicity of the rifabutin dosage in the mice", "setting": "[5]; mouse, in vivo", "value": "little or not toxicity"},
      {"measurement": "injection sites that developed tumors", "setting": "[5]; second study, treated before palpable tumors, CHOP+rifabutin group, 6 of 16 sites", "value": 37.5, "unit": "%"},
      {"measurement": "tumor load", "setting": "[5]; third study, reduced dosages of CHOP with 33 mg/kg rifabutin weekly, versus untreated mice", "value": "significantly less"},
      {"measurement": "comparative cytotoxicity to normal cells", "setting": "[6]", "value": "not toxic to normal cells"},
      {"measurement": "initial half-life", "setting": "[7]; biphasic plasma elimination", "value": "approximately 4 hours"},
      {"measurement": "mean terminal half-life", "setting": "[7]; biphasic plasma elimination", "value": "45 (±17) hours"},
      {"measurement": "mean (±SD) peak plasma concentration (Cmax)", "setting": "[7]; single oral dose of 300 mg", "value": "375 (±267) ng/mL"}
    ]}
  ]
}
